Results reported in patent US20040048791A1, “Method for treating neoplastic cells using cycloprodigiosin or salt thereof” (priority 2002, published 2004).
Entries after “also recorded” stand apart in the source; their conditions may differ. Where a name gives a salt, the structure may show the parent alone.

Tests used:
NF-κB = NF-κB luciferase gene reporter assay (pIG3Luc) in HeLa cells; assay type: cell-based
Source text: The plasmids, pRKF-IKKα and pRKHA-IKKβ have been described previously (Oka, S., Kamata, H., Kamata, K., Yagisawa, H. and Hirata, H. (2000) FEBS Lett., 472, 196-202). pRKF-IKKαEE and pRK-HA-IKKβEE encode constitutively active mutants of IKKα, in which 176 and 180 serine residues in an activation loop are replaced by glutamic acid residues, and IKKβ, in, which 177 and 181 serine residues are replaced by glutamic acid residues, respectively. A reporter plasmid pIG3Luc for NF-κB encodes triple NF-κB binding site sequences (AGCTTCAGAGGGGACTRANSCRIPTIONCCGAGAGG) (SEQ ID NO: 2) followed by the luciferase gene. A control plasmid, pBKRLuc, was obtained from Toyobo (Toyo B-Net Co., Japan). pcDNAF-MEKK1, pRKF-p65, pEFBOSHA-Rac1-DA, and pEFBOSHA-Cdc42-DA, are the expression plasmids for MEKK1, the NF-κB subunit p65, constitutively active Rac1 and Cdc42, respectively.
Luciferase gene reporter assay and Kinase assays of IKK: HeLa cells were transfected with the reporter plasmids described above using Lipofectin (GIBCO BRL). After 24-48 hr, the luciferase activity was determined using the Luciferase Assay System (Promega). The kinase activity of IKKα and IKKβ were analyzed by immune complex kinase assay as described previously (Oka, S., Kamata, H., Kamata, K., Yagisawa, H. and Hirata, H. (2000) FEBS Lett. 472, 196-202). The substrates was using GST-IκBα(1-55) or GST-p65(399-551).
The gene expression induction by NF-κB activation plays the most important role among “life” signals by TNFα. Therefore, the NF-κB reporter gene was introduced into the cells to analyze the effect of cPrG-HCl by luciferase assay.
NF-κB is translocated into the nucleus also by activation with low-molecular-weight G proteins Rac1 and Cdc42 or MEKK1 and induces gene expression. An activated Rac1, Cdc42 or MEKK1 expression plasmid was introduced together with the NF-κB reporter gene into cells and the effect of cPrG-HCl on NF-κB activation was measured by luciferase assay (FIG. 4A and FIG. 4B).

PKA = PKA (Homo sapiens, UniProt P17612); assay: PKA activity in vitro; assay type: biochemical; settings: FIG. 13, hydrochloride
Source text: Accordingly, in order to identify the p65 kinase which cPrG-HCl suppressed, the effect of cPrG-HCl on PKA (FIG. 13), casein kinase II (CKII) (FIG. 12), and IκB kinase (IKK) (FIG. 14) was studied in vitro.

AP-1 [1] = assay: EMSA of AP-1 DNA binding activity; assay type: cell-based
Description: In addition, in order to reveal the mechanism of the suppression of AP-1 transcriptional activation, the effect of cPrG-HCl on upstream kinases, i.e., JNK and p38, was analyzed. Further, relationship between the suppression of AP-1 transcriptional activation by cPrG-HCl and the acidification of intracellular pH was studied.

JNK = JNK kinase activity after immune precipitation from HeLa cells; assay type: cell-based; settings: 1 μM, TNFα or PMA 15 minutes, FIG. 9A, hydrochloride
Description: HeLa cells were pretreated with cPrG-HCl (1 μM) for 1 hour and then stimulated with TNFα (20 ng/ml) or PMA (1 μg/ml) for 15 minutes, and JNK recovered by an immune precipitation method was then reacted with [γ-^32P]-ATP and a substrate GST-c-Jun, after which SDS-PAGE was carried out and the resulting gel was analyzed by an imaging analyzer. Further, HeLa cells were pretreated with cPrG-HCl (1 μM) for 1 hour and then stimulated with TNFα (20 ng/ml) for 15 minutes, a cell extract was recovered and subjected to SDS-PAGE and Western blotting was carried out using p38 phosphorylation antibody.

AP-1 [2] = assay: AP-1 luciferase reporter assay in various kinds of cells; assay type: cell-based, human; African green monkey; settings: all the cells tested: U373, 293, COS7, MKN45; FIGS. 6A to 6F
Description: In order to find out whether the suppression of NF-κB and AP-1 activation was specific to HeLa cells used above, analysis was made with various kind of cells. The cells used were U373 cells (human brain tumor cells), 293 cells (human embryo-derived kidney cells), COS7 cells (African green monkey kidney-derived cells), and MKN45 cells (human gastric tumor cells).
The NF-κB reporter plasmid pIG3Luc was incorporated into cells by transfection. After 24 hours, the cells were pretreated with cPrG-HCl at a specified concentration for 1 hour and then stimulated with TNFα (20 ng/ml) or PMA (1 μg/ml) for 4 hours, after which luciferase activity was measured. Each activity was corrected for the amount of protein.

IKK = target: T1, IKK (Homo sapiens, UniProt O14920+O15111); settings: earlier abstract of the inventors (Kamata et al., 2000); cited from earlier work
T1 construct: host or cells: HeLa cells (inferred)
T1 sequence (O15111 whole entry): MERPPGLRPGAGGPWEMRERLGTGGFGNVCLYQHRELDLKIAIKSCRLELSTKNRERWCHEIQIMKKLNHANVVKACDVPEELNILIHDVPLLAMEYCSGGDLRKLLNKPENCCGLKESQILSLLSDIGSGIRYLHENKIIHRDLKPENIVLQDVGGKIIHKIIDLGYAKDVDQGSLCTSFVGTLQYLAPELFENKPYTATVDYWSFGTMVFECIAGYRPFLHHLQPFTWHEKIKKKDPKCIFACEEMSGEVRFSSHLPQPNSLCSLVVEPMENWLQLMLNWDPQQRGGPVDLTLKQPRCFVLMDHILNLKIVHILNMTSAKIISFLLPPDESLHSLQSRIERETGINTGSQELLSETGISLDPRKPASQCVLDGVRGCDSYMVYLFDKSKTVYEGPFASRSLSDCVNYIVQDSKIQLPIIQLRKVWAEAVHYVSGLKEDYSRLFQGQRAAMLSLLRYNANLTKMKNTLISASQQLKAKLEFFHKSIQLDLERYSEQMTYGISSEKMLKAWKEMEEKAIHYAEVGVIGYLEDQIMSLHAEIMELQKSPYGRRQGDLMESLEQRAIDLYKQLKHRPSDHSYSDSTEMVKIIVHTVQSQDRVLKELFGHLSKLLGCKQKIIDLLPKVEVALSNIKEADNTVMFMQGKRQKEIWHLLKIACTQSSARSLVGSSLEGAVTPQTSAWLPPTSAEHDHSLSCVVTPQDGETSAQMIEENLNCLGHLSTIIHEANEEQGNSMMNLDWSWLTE
T1 sequence (O14920 whole entry): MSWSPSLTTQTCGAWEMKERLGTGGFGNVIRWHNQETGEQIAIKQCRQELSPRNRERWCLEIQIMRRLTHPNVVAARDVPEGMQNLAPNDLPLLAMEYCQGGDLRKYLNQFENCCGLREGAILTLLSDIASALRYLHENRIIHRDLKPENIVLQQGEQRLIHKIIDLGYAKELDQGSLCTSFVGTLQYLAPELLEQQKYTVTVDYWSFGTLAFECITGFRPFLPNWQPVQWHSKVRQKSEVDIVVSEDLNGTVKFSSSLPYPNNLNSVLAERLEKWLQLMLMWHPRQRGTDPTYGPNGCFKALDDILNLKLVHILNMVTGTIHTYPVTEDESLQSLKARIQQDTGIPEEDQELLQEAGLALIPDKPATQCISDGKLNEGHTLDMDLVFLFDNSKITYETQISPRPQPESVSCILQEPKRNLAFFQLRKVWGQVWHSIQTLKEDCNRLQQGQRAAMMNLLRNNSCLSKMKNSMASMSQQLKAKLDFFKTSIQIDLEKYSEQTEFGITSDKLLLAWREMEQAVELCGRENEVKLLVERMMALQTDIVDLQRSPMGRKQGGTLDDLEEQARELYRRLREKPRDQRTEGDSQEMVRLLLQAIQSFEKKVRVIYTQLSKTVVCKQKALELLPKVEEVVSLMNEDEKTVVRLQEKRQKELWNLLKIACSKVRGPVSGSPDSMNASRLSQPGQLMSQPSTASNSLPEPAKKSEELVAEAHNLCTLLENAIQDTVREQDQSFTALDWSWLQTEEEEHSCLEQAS
T1 sequence (Q9Y6K9 whole entry partner): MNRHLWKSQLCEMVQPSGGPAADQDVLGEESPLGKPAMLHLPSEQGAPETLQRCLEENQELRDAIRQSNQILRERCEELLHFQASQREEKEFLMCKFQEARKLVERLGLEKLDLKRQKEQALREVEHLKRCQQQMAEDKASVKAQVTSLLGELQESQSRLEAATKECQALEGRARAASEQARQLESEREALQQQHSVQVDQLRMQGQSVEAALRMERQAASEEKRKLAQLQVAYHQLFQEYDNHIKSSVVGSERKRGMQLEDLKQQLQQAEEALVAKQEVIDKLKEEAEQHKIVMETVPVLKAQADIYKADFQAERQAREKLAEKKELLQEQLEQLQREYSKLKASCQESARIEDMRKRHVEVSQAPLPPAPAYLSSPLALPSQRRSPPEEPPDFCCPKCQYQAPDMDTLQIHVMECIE

## COC1=CC(c2ccc[nH]2)=N/C1=C\c1[nH]c(C)c2c1C(C)CCC2 (centres unmarked) [cPrG-HCl, Cycloprodigiosin hydrochloride]
NF-κB
  NF-κB-dependent gene expression induced by IKKα: Suppresses
  NF-κB-dependent gene expression induced by IKKβ: Suppresses
  NF-κB-dependent gene expression induced by p65: Suppresses
NF-κB; FIG. 3A
  PMA-induced activation of NF-κB: Suppresses
NF-κB; HeLa cells, FIG. 2A, 2C, hydrochloride
  TNFα-induced NF-κB activation (gene expression induction, luciferase): inhibited; also recorded: concentration-dependently suppressed
NF-κB; MEKK1 expression plasmid with reporter gene, FIG. 4
  NF-κB activation induced by MEKK1: suppressed
NF-κB; activated Cdc42 expression plasmid with reporter gene, FIG. 4
  NF-κB activation induced by Cdc42: suppressed
NF-κB; activated Rac1 expression plasmid with reporter gene, FIG. 4
  NF-κB activation induced by Rac1: suppressed
NF-κB; in the presence of imidazole, FIG. 2C
  TNFα-induced NF-κB activation: suppressed
PKA
  effect on PKA activity: does not directly suppress; also recorded: no suppressive effect
AP-1 [1]
  DNA binding activity of AP-1: no inhibitory effect
JNK
  effect on JNK kinase: suppressed neither; also recorded: no suppression
AP-1 [2]
  AP-1 transcriptional activation: suppressed
IKK
  IKK activation: no suppressive effect
